What was measured:
MDA-MB-468 cells = test: MTT cell viability assay, MDA-MB-468; details: Homo sapiens, MDA-MB-468, 72 h, read-out: IC50 MDA-MB-468
Procedure: (§1) The viability assay was measured by a 3-(4,5-dimethylthiazol-2-yl)−2,5-diphenyltetrazolium bromide (MTT) assay.
(§2) In brief, cells were seeded at a density of 6,000 cells in 96-well plates and cultured overnight. […] After aspiration of the medium, the formazan crystals were dissolved in 100 μL of DMSO. The absorbance at 490 nm was measured using a microplate reader (BioTek). All these analyses were performed at least three times.

H3K9 acetylation = test: Western blot of histone H3 lysine 9 acetylation in TNBC cells; format: cell-based, human; details: TNBC cell lines, 48 h
Procedure: Western blot analysis was performed as previously described, and all western blot analyses were performed at least three times.
Western blot analysis was performed as previously described. Briefly, whole cell or tissue lysates were prepared using ice-cold Nonidet P-40 buffer mixed with protease and phosphatase inhibitors (Roche, IN, USA) and centrifuged at 14,000 × g at 4 °C for 10 min. The protein lysates were fractionated by sodium dodecyl sulfate–polyacrylamide gel electrophoresis (SDS–PAGE) and transferred to polyvinylidene fluoride (PVDF) membranes (Merck, Darmstadt, Germany). Membranes were incubated in 1× TBST buffer containing 5% nonfat powdered milk at room temperature for 2 h. The indicated primary antibody was incubated with PVDF membranes, followed by a washing step using 1× TBST and a secondary antibody conjugated to HRP. Signal detection was carried out using the Western ECL Substrate kit (Bio-Rad, Hercules, CA, USA). […]

recombinant HDAC1 = molecular target: T1, recombinant HDAC1 (Homo sapiens, UniProt Q13547); test: HDAC1 inhibition assay (Ac-peptide-AMC fluorescence); format: biochemical
T1 construct: purchased Active Motif
T1 sequence (Q13547 whole entry): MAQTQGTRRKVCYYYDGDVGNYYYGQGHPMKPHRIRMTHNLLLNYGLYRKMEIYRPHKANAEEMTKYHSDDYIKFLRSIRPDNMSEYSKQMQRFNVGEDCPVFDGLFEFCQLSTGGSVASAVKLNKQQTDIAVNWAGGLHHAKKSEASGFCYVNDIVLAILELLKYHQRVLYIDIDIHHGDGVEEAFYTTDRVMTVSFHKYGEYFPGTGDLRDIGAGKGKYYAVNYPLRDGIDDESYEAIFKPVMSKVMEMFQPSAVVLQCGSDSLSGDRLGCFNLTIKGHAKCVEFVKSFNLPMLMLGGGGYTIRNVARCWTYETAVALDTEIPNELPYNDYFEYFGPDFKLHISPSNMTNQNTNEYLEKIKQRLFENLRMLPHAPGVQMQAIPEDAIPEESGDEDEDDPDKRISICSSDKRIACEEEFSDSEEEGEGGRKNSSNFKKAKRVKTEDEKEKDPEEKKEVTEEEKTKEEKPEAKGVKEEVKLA
Procedure: The in vitro HDAC inhibition assays were carried out by Sundia MediTech Co. Ltd. in Shanghai, China. […] Reactions were stopped with trypsin, and the samples were incubated for another 90 min at 37 °C. […] IC50 values were obtained using GraphPad Prism software.

PARP2 = molecular target: T2, PARP2 (Homo sapiens, UniProt Q9UGN5); test: PARP2 enzymatic inhibition assay (PARP2 Colorimetric Assay Kit); format: biochemical
T2 construct: purchased BPS Bioscience 80581
T2 sequence (Q9UGN5 whole entry): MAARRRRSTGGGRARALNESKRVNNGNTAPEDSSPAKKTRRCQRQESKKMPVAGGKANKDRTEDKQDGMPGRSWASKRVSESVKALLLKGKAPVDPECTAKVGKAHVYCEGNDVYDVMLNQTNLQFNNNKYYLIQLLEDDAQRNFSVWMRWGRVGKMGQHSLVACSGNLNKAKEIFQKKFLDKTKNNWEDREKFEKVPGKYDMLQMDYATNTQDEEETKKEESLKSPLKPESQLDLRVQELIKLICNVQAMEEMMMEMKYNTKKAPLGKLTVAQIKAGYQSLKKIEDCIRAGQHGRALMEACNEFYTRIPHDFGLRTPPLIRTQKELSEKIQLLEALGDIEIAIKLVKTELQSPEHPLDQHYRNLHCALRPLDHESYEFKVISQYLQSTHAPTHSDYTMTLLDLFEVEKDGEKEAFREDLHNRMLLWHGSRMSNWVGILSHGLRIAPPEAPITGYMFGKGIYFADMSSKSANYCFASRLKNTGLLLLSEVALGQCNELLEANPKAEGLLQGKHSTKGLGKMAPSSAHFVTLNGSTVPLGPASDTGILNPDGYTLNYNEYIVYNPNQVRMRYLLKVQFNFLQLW
Procedure: Briefly, the 1× histone mixture was added to each well and incubated overnight at 4 °C. Each well was washed three times with 200 µL 1× TBST buffer and filled with 200 µL Blocking buffer at room temperature for 90 min. Then, each well was filled with 25 µL of PARP master mixture (5 μL activated DNA + 2.5 μL 10× PARP Assay mixture + 2.5 μL 10× PARP buffer + 15 μL distilled water). Next, 5 µL of the compound of different concentrations was added to each well, and PARP enzyme was added and incubated at room temperature for 1 h. Next, streptavidin HRP solution was added and incubated at room temperature for 30 min. After adding 100 µL of colorimetric HRP substrate to each well, the plate was incubated until a blue color developed in the positive well, which contained PARP enzyme without inhibitors. The reaction was then quenched with 2 M sulfuric acid, and absorbance at 450 nm was measured using a microplate reader (BioTek, Winooski, VT, USA). After calculating the inhibition rate, the IC50 value was determined.

MCF-10A cells = test: MTT cell viability assay, MCF-10A; details: Homo sapiens, 72 h, read-out: IC50 MCF-10A
Procedure: as §1, §2

MDA-MB-436 cells = test: MTT cell viability assay, MDA-MB-436; details: Homo sapiens, MDA-MB-436, 72 h, read-out: IC50 MDA-MB-436
Procedure: as §1, §2

[1] = system: MDA-MB-436, MDA-MB-231, and MDA-MB-468 cells; test: Colony formation assay; format: cell-based, human; details: approximately 14 days
Procedure: MDA-MB-231, MDA-MB-436 and MDA-MB-468 cells were seeded at a density of 2,000 cells in 6-well plates and cultured overnight. […] The cells were fixed with 4% paraformaldehyde (Merck) for 1 h at room temperature and stained with 0.1% crystal violet (Beyotime Biotechnology) for 30 min. Under an inverted phase contrast microscope (Leica Microsystems, Heidelberg, Germany), cell colonies were photographed at 5× magnification. All these analyses were performed at least three times.

Row | IC50 (MDA-MB-468 cells) [nM] | IC50 (recombinant HDAC1) [nM] | IC50 (PARP2) [nM] | IC50 (MDA-MB-436 cells) [nM] | SMILES | acetylation of lysine 9 of histone H3 (H3K9) (H3K9 acetylation) | IC50 (MCF-10A cells) [nM] | colony formation of TNBC cells [1]
1 | 1270 ± 580 | > 10000 | 57 | 4120 ± 1020 | Nc1cc(F)ccc1NC(=O)CCc1ccc(CN2CCN(C(=O)c3cc(Cc4n[nH]c(=O)c5ccccc45)ccc3F)CC2)cc1 [Compound B302] | elevated the acetylation | 36800 ± 6590 | reduction in colony formation
2 | 270 ± 110 | 1690 | 2.13 | 160 ± 50 | Nc1cc(F)ccc1NC(=O)/C=C/c1ccc(CN2CCN(C(=O)c3cc(Cc4n[nH]c(=O)c5ccccc45)ccc3F)CC2)cc1 [Compound B102] | elevated the acetylation | 13700 ± 230 | reduction in colony formation

— paper PMC10770036, “Novel dual inhibitors of PARP and HDAC induce intratumoral STING-mediated antitumor immunity in triple-negative breast cancer” (Cell Death & Disease, 2024)
